Experimental data published in patent US9388162B2, “Substituted morphinans and the use thereof” (Purdue Pharma L.P., priority 2012, dated 2016).

Legend:
μ-opioid receptors = μ-opioid receptors (Homo sapiens (Human), UniProt P35372); assay: μ-opioid receptor [35S]GTPγS functional assay, U-2 OS cells; assay type: biochemical; settings: μ GTP; for EC50: read-out: Activity Response μ EC50 (nM) [mean ± SEM]; for Emax: relative to DAMGO, read-out: Activity Response μ Emax (%)
Experimental: [^35S]GTPγS functional assays were conducted using freshly thawed μ-receptor membranes prepared from a cell line expressing recombinant μ opioid receptor in a HEK-293, CHO or U-2 OS cell background or purchased from a commercial source (Perkin Elmer, Shelton, Conn.; or DiscovRx, Fremont, Calif.). Assay reactions were prepared by sequentially adding the following reagents to binding buffer (100 mM NaCl, 10 mM MgCl2, 20 mM HEPES, pH 7.4) on ice (final concentrations indicated): membrane protein (0.026 mg/mL), saponin ([…]), GDP ([…]) and [^35S]GTPγS (0.20 nM; Perkin Elmer, Shelton, Conn.). The prepared membrane solution (190 μl/well) was transferred to 96-shallow well polypropylene plates containing 10 μl of 20× concentrated stock solutions of the agonist [D-Ala^2, N-methyl-Phe^4 Gly-ol^5]-enkephalin (DAMGO) prepared in dimethyl sulfoxide (DMSO). Plates were incubated for 30 min at about 25° C. with shaking. Reactions were terminated by rapid filtration onto 96-well Unifilter GF/B filter plates (Perkin Elmer, Shelton, Conn.) using a 96-well tissue harvester (Perkin Elmer, Shelton, Conn.) followed by three filtration washes with 200 μl of ice-cold wash buffer (10 mM NaH2PO4, 10 mM Na2HPO4, pH 7.4). Filter plates were subsequently dried at 50° C. for 2-3 hours. BetaScint scintillation cocktail (Perkin Elmer, Shelton, Conn.) was added (50 μl/well) and plates were counted using a Packard Top-Count for 1 min/well. Data were analyzed using the sigmoidal dose-response curve fitting functions in GraphPad PRISM v. 3.0, or an in-house function for non-linear, sigmoidal dose-response curve-fitting.
μ GTP EC50 is the concentration of a compound providing 50% of the maximal response for the compound at a μ-opioid receptor.
μ GTP Emax (%) is the maximal effect elicited by a compound relative to the effect elicited by DAMGO, a standard μ agonist. Generally, the μ GTP Emax (%) value measures the efficacy of a compound to treat or prevent pain or other Conditions.
(§1) The following tables provide results on the efficacy of binding and activity response of exemplified Compounds of the Invention at the μ- and κ-opioid receptors. In TABLE 3, binding affinity of certain Compounds of the Invention to the μ- and κ-opioid receptors was determined as described above. In TABLE 4, activity response of certain Compounds of the Invention to the μ- and κ-opioid receptors was determined as described above for functional assays using HEK-293 cells. In TABLE 5, activity response of certain Compounds of the Invention to the μ- and κ-opioid receptors was determined as described above using U-2 OS cells.

κ opioid receptor = κ opioid receptor (Homo sapiens (Human), UniProt P41145); assay: κ-opioid receptor [35S]GTPγS functional assay, U-2 OS cells; assay type: biochemical; settings: κ GTP; for EC50: read-out: Activity Response κ EC50 (nM) [mean ± SEM]; for Emax: relative to U69,593, read-out: Activity Response κ Emax (%)
Experimental: Membranes from HEK-293 cells, CHO or U-2 OS cells expressing the recombinant human kappa opioid receptor (κ) were prepared by lysing cells in ice cold hypotonic buffer (2.5 mM MgCl2, 50 mM HEPES, pH 7.4) (10 mL/10 cm dish) followed by homogenization with a tissue grinder/Teflon pestle. Membranes were collected by centrifugation at 30,000×g for 15 min at 4° C. and pellets were resuspended in hypotonic buffer to a final concentration of 1-3 mg/mL. Protein concentrations were determined using the BioRad protein assay reagent with bovine serum albumen as standard. Aliquots of κ receptor membranes were stored at −80° C.
Functional [^35S]GTPγS binding assays were conducted as follows. κ opioid receptor membrane solution was prepared by sequentially adding final concentrations of 0.026 μg/μl κ membrane protein (in-house), 10 μg/mL saponin, 3 μM GDP and 0.20 nM [^35S]GTPγS to binding buffer (100 mM NaCl, 10 mM MgCl2, 20 mM HEPES, pH 7.4) on ice. The prepared membrane solution (190 μl/well) was transferred to 96-shallow well polypropylene plates containing 10 μl of 20× concentrated stock solutions of agonist prepared in DMSO. Plates were incubated for 30 min at a temperature of about 25° C. with shaking. Reactions were terminated by rapid filtration onto 96-well Unifilter GF/B filter plates (Perkin Elmer, Shelton, Conn.) using a 96-well tissue harvester (Packard) and followed by three filtration washes with 200 μl ice-cold binding buffer (10 mM NaH2PO4, 10 mM Na2HPO4, pH 7.4). Filter plates were subsequently dried at 50° C. for 2-3 hours. Fifty μl/well scintillation cocktail (Perkin Elmer, Shelton, Conn.) was added and plates were counted in a Packard Top-Count for 1 min/well.
κ GTP EC50 is the concentration of a compound providing 50% of the maximal response for the compound at a κ receptor.
κ GTP Emax (%) is the maximal effect elicited by a compound relative to the effect elicited by U69,593.
as §1, with “In” for “The following tables provide results on the efficacy of binding and activity response of exemplified Compounds of the Invention at the μ- and κ-opioid receptors. In”

## COc1ccc2c(c1)[C@]13CCN(C)[C@H](C2)[C@]1(O)C[C@H](CCOCc1ccccc1)C(=O)C3 [Compound 50, (4bR,7S,8aS,9R)-7-(2-(benzyloxy)ethyl)-8a-hydroxy-3-methoxy-11-methyl-8,8a,9,10-tetrahydro-5H-9,4b-(epiminoethano)phenanthren-6(7H)-one]
μ-opioid receptors
  EC50: 148 ± 10.4 nM
  Emax: 102 ± 1.67%
κ opioid receptor
  EC50: 7900 ± 707 nM
  Emax: 74 ± 5.29%

## COc1ccc2c(c1)[C@]13CCN(C)[C@H](C2)[C@]1(O)C[C@H](CC(=O)N1CCCC1)C(=O)C3 [Compound 77, (4bR,7R,8aS,9R)-8a-hydroxy-3-methoxy-11-methyl-7-(2-oxo-2-(pyrrolidin-1-yl)ethyl)-8,8a,9,10-tetrahydro-5H-9,4b-(epiminoethano)phenanthren-6(7H)-one]
μ-opioid receptors
  EC50: 17600 ± 3650 nM
  Emax: 77 ± 2.08%
κ opioid receptor
  EC50: > 200000 nM
  Emax: 49 ± 9.45%

## CCC(C)C[C@H]1C[C@@]2(O)[C@H]3Cc4ccc(O)cc4[C@@]2(CCN3CC2CC2)CC1=O (stereo partly drawn) [Compound 66, (4bR,7S,8aS,9R)-11-(cyclopropylmethyl)-3,8a-dihydroxy-7-(2-methylbutyl)-8,8a,9,10-tetrahydro-5H-9,4b-(epiminoethano)phenanthren-6(7H)-one]
μ-opioid receptors
  EC50: > 200000 nM
  Emax: 2.5%
κ opioid receptor
  EC50: 7.57 ± 1.14 nM
  Emax: 102 ± 1.33%

## COc1ccc2c(c1)[C@]13CCN(CC4CC4)[C@H](C2)[C@]1(O)C[C@H](NC(=O)C(C)C)C(=O)C3 [Compound 26, N-((4bR,7S,8aS,9R)-11-(cyclopropylmethyl)-8a-hydroxy-3-methoxy-6-oxo-6,7,8,8a,9,10-hexahydro-5H-9,4b-(epiminoethano)phenanthren-7-yl)isobutyramide]
μ-opioid receptors
  EC50: 7110 ± 633 nM
  Emax: 31 ± 2.08%
κ opioid receptor
  EC50: 7210 ± 438 nM
  Emax: 104 ± 2.52%

## COc1ccc2c(c1)[C@]13CCN(C)[C@H](C2)[C@]1(O)C[C@H](CC(=O)N1CCC(O)CC1)C(=O)C3 [Compound 78, (4bR,7R,8aS,9R)-8a-hydroxy-7-(2-(4-hydroxypiperidin-1-yl)-2-oxoethyl)-3-methoxy-11-methyl-8,8a,9,10-tetrahydro-5H-9,4b-(epiminoethano)phenanthren-6(7H)-one]
μ-opioid receptors
  EC50: 10400 ± 4810 nM
  Emax: 36.7 ± 9.17%
κ opioid receptor
  EC50: > 200000 nM
  Emax: 53.3 ± 1.45%

## COc1ccc2c(c1)[C@]13CCN(CC4CC4)[C@H](C2)[C@]1(O)C/C(=C\CC(C)C)C(=O)C3 [Compound 62, (4bR,8aS,9R,E)-11-(cyclopropylmethyl)-8a-hydroxy-3-methoxy-7-(3-methylbutylidene)-8,8a,9,10-tetrahydro-5H-9,4b-(epiminoethano)phenanthren-6(7H)-one]
μ-opioid receptors
  EC50: > 200000 nM
  Emax: 27.5%
κ opioid receptor
  EC50: 3070 ± 233 nM
  Emax: 62.7 ± 4.37%

## CC(C)CC(=O)N[C@H]1C[C@@]2(O)[C@H]3Cc4ccc(O)cc4[C@@]2(CCN3CC2CC2)CC1=O [Compound 33, N-((4bR,7S,8aS,9R)-11-(cyclopropylmethyl)-3,8a-dihydroxy-6-oxo-6,7,8,8a,9,10-hexahydro-5H-9,4b-(epiminoethano)phenanthren-7-yl)-3-methylbutanamide]
μ-opioid receptors
  EC50: > 200000 nM
  Emax: 2.5%
κ opioid receptor
  EC50: 36.1 ± 3.14 nM
  Emax: 52 ± 4.93%

## O=C(N[C@H]1C[C@@]2(O)[C@H]3Cc4ccc(O)cc4[C@@]2(CCN3CC2CC2)CC1=O)C1CCCCC1 [Compound 38, N-((4bR,7S,8aS,9R)-11-(cyclopropylmethyl)-3,8a-dihydroxy-6-oxo-6,7,8,8a,9,10-hexahydro-5H-9,4b-(epiminoethano)phenanthren-7-yl)cyclohexanecarboxamide]
μ-opioid receptors
  EC50: 10.3 ± 1.72 nM
  Emax: 40.3 ± 1.45%
κ opioid receptor
  EC50: 2.3 ± 0.25 nM
  Emax: 95.3 ± 5.21%

## O=C(N[C@H]1C[C@@]2(O)[C@H]3Cc4ccc(O)cc4[C@@]2(CCN3CC2CC2)CC1=O)C1CC1 [Compound 34, N-((4bR,7S,8aS,9R)-11-(cyclopropylmethyl)-3,8a-dihydroxy-6-oxo-6,7,8,8a,9,10-hexahydro-5H-9,4b-(epiminoethano)phenanthren-7-yl)cyclopropanecarboxamide]
μ-opioid receptors
  EC50: > 200000 nM
  Emax: 6.33 ± 2.19%
κ opioid receptor
  EC50: 12.6 ± 2.04 nM
  Emax: 101 ± 3.33%

## CCCC[C@H]1C[C@@]2(O)[C@H]3Cc4ccc(O)cc4[C@@]2(CCN3CC2CC2)CC1=O [Compound 67, (4bR,7S,8aS,9R)-7-butyl-11-(cyclopropylmethyl)-3,8a-dihydroxy-8,8a,9,10-tetrahydro-5H-9,4b-(epiminoethano)phenanthren-6(7H)-one]
μ-opioid receptors
  EC50: > 200000 nM
  Emax: 2%
κ opioid receptor
  EC50: 3 ± 0.12 nM
  Emax: 101 ± 1.73%

## CC(C)CCCC(=O)N[C@H]1C[C@@]2(O)[C@H]3Cc4ccc(O)cc4[C@@]2(CCN3CC2CC2)CC1=O [Compound 31, N-((4bR,7S,8aS,9R)-11-(cyclopropylmethyl)-3,8a-dihydroxy-6-oxo-6,7,8,8a,9,10-hexahydro-5H-9,4b-(epiminoethano)phenanthren-7-yl)-5-methylhexanamide]
μ-opioid receptors
  EC50: 9.65 ± 0.22 nM
  Emax: 73.7 ± 2.6%
κ opioid receptor
  EC50: 2.59 ± 0.14 nM
  Emax: 90.7 ± 6.57%

## O=C1C[C@]23CCN(CC4CC4)[C@H](Cc4ccc(O)cc42)[C@]3(O)C[C@@H]1CC1CCCCC1 [Compound 70, (4bR,7S,8aS,9R)-7-(cyclohexylmethyl)-11-(cyclopropylmethyl)-3,8a-dihydroxy-8,8a,9,10-tetrahydro-5H-9,4b-(epiminoethano)phenanthren-6(7H)-one]
μ-opioid receptors
  EC50: > 200000 nM
  Emax: 3.5%
κ opioid receptor
  EC50: 4.01 ± 0.47 nM
  Emax: 106 ± 3.8%

## O=C1C[C@]23CCN(CC4CC4)[C@H](Cc4ccc(OCc5ccccc5)cc42)[C@]3(O)C[C@@H]1CCO [Compound 58, (4bR,7S,8aS,9R)-3-(benzyloxy)-11-(cyclopropylmethyl)-8a-hydroxy-7-(2-hydroxyethyl)-8,8a,9,10-tetrahydro-5H-9,4b-(epiminoethano)phenanthren-6(7H)-one]
μ-opioid receptors
  EC50: 787 ± 242 nM
  Emax: 43.7 ± 3.93%
κ opioid receptor
  EC50: 839 ± 9.9 nM
  Emax: 96 ± 6.35%

## CN1CC[C@]23CC(=O)[C@@H](CC(=O)O)C[C@@]2(O)[C@H]1Cc1ccc(O)cc13 [Compound 61, 2-((4bR,7R,8aS,9R)-3,8a-dihydroxy-11-methyl-6-oxo-6,7,8,8a,9,10-hexahydro-5H-9,4b-(epiminoethano)phenanthren-7-yl)acetic acid]
μ-opioid receptors
  EC50: 466 ± 81 nM
  Emax: 77.3 ± 2.03%
κ opioid receptor
  EC50: 963 ± 83 nM
  Emax: 90 ± 10%
